In the assay the target is T1, rat GHS-receptor (GHR-R) (Rattus norvegicus, UniProt O08725).
T1 construct: A full-length cDNA for rat GHR-R was obtained by RT-PCR; expressed in transfected cells
Nature of the assay: Ca-releasing activity (increase in intracellular calcium) in CHO-GHSR62 cells, FLIPR. Format: cell-based. The note with it: FLIPR. The method in brief: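 CHO cells stably expressing full-length rat GHS-R (CHO-GHSR62) were cultured 12–15 h, loaded with 4 μM Fluo4 for 1 h and washed with Hank's BSS containing 20 mM Hepes and 2.5 mM probenecid. Ca-releasing activity of ghrelin peptides, fragments or derivatives was read by FLIPR as the fluorescence change after sample addition.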
(In general: Calcium flux is commonly read through the fluorescence of an indicator in the cells.)

Where [1] appears, read: CHO-GHSR62 cells (CHO cells expressing rat GHS receptor), read-out: Ca-releasing activity EC50.

Read-outs that look alike come from different tables or passages of the source.

As usually defined, the EC50 is the concentration giving half of the maximal effect.

T1 sequence (O08725 whole entry): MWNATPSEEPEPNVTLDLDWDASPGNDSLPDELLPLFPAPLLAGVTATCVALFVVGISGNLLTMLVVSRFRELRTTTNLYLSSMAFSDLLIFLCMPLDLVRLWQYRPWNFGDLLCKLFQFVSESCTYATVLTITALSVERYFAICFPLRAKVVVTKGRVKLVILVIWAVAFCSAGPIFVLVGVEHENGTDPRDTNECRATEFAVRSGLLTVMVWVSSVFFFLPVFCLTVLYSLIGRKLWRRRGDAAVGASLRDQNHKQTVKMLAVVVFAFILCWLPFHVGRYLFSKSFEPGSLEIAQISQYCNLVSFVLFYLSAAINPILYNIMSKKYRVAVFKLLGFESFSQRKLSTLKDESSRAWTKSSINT

For the molecule `CC(C)C[C@H](NC(=O)[C@H](CCCCN)NC(=O)[C@H](C)NC(=O)[C@@H]1CCCN1C(=O)[C@@H]1CCCN1C(=O)[C@H](CCCCN)NC(=O)[C@H](CCCCN)NC(=O)[C@H](CO)NC(=O)[C@H](CCC(=O)O)NC(=O)[C@H](CCCCN)NC(=O)[C@H](CCCNC(=N)N)NC(=O)[C@H](CCC(N)=O)NC(=O)[C@H](CCC(N)=O)NC(=O)[C@@H](NC(=O)[C@H](CCCNC(=N)N)NC(=O)[C@H](CCC(N)=O)NC(=O)[C@H](Cc1c[nH]cn1)NC(=O)[C@H](CCC(=O)O)NC(=O)[C@@H]1CCCN1C(=O)[C@H](CO)NC(=O)[C@H](CC(C)C)NC(=O)[C@H](Cc1ccccc1)NC(=O)[C@H](CC1CCCCC1)NC(=O)[C@H](CO)NC(=O)CN)C(C)C)C(=O)N[C@@H](CCC(N)=O)C(=O)N1CCC[C@H]1C(=O)N[C@@H](CCCNC(=N)N)C(=O)O` [Compound 64, [Cha^3]-hGhrelin], the EC50 under setting [1] came to 19 nM.

As for `CC(C)C[C@H](NC(=O)[C@H](CCCCN)NC(=O)[C@H](C)NC(=O)[C@@H]1CCCN1C(=O)[C@@H]1CCCN1C(=O)[C@H](CCCCN)NC(=O)[C@H](CCCCN)NC(=O)[C@H](CO)NC(=O)[C@H](CCC(=O)O)NC(=O)[C@H](CCCCN)NC(=O)[C@H](CCCNC(=N)N)NC(=O)[C@H](CCC(N)=O)NC(=O)[C@H](CCC(N)=O)NC(=O)[C@@H](NC(=O)[C@H](CCCNC(=N)N)NC(=O)[C@H](CCC(N)=O)NC(=O)[C@H](Cc1c[nH]cn1)NC(=O)[C@H](CCC(=O)O)NC(=O)[C@@H]1CCCN1C(=O)[C@H](CO)NC(=O)[C@H](CC(C)C)NC(=O)[C@H](Cc1ccccc1)NC(=O)[C@H](COCc1ccccc1)NC(=O)[C@H](CO)NC(=O)CN)C(C)C)C(=O)N[C@@H](CCC(N)=O)C(=O)N1CCC[C@H]1C(=O)N[C@@H](CCCNC(=N)N)C(=O)O` [Compound 67, [Ser^3(Bzl)]-hGhrelin], the 50% effective concentration (EC50) under setting [1] stood at 7.6 nM.

For the molecule `CC(C)C[C@H](NC(=O)[C@H](CCCCN)NC(=O)[C@H](C)NC(=O)[C@@H]1CCCN1C(=O)[C@@H]1CCCN1C(=O)[C@H](CCCCN)NC(=O)[C@H](CCCCN)NC(=O)[C@H](CO)NC(=O)[C@H](CCC(=O)O)NC(=O)[C@H](CCCCN)NC(=O)[C@H](CCCNC(=N)N)NC(=O)[C@H](CCC(N)=O)NC(=O)[C@H](CCC(N)=O)NC(=O)[C@@H](NC(=O)[C@H](CCCNC(=N)N)NC(=O)[C@H](CCC(N)=O)NC(=O)[C@H](Cc1c[nH]cn1)NC(=O)[C@H](CCC(=O)O)NC(=O)[C@@H]1CCCN1C(=O)[C@H](CO)NC(=O)[C@H](CC(C)C)NC(=O)[C@H](Cc1ccccc1)NC(=O)[C@H](CSC(c1ccccc1)(c1ccccc1)c1ccccc1)NC(=O)[C@H](CO)NC(=O)CN)C(C)C)C(=O)N[C@@H](CCC(N)=O)C(=O)N1CCC[C@H]1C(=O)N[C@@H](CCCNC(=N)N)C(=O)O` [Compound 68, [Cys^3(Trityl)]-hGhrelin], the concentration for a half-maximal effect (EC50) (Ca-releasing activity EC50, CHO-GHSR62 cells (CHO cells expressing rat GHS receptor)) stood at 20 nM.

As to `CC(C)CCC(=O)OC[C@H](NC(=O)[C@H](CO)NC(=O)CN)C(=O)N[C@@H](Cc1ccccc1)C(=O)N[C@@H](CC(C)C)C(=O)N[C@@H](CO)C(=O)N1CCC[C@H]1C(=O)N[C@@H](CCC(=O)O)C(=O)N[C@@H](Cc1c[nH]cn1)C(=O)N[C@@H](CCC(N)=O)C(=O)N[C@@H](CCCNC(=N)N)C(=O)N[C@H](C(=O)N[C@@H](CCC(N)=O)C(=O)N[C@@H](CCC(N)=O)C(=O)N[C@@H](CCCNC(=N)N)C(=O)N[C@@H](CCCCN)C(=O)N[C@@H](CCC(=O)O)C(=O)N[C@@H](CO)C(=O)N[C@@H](CCCCN)C(=O)N[C@@H](CCCCN)C(=O)N1CCC[C@H]1C(=O)N1CCC[C@H]1C(=O)N[C@@H](C)C(=O)N[C@@H](CCCCN)C(=O)N[C@@H](CC(C)C)C(=O)N[C@@H](CCC(N)=O)C(=O)N1CCC[C@H]1C(=O)N[C@@H](CCCNC(=N)N)C(=O)O)C(C)C` [Compound 69, [Ser^3(4-Methylpentanoyl)]-hGhrelin], the EC50 under setting [1] amounted to 4.4 nM.
